Measurements from patent US20080009418A1, “Selective Inhibitors” (Alchemia LTD., priority 2004, published 2008).

Key:
[1] = biological target: T1, Human δ-opioid (DOP) (Homo sapiens, UniProt P41143); assay: Radioligand binding, human δ-opioid (DOP) membranes, FlashPlate, [3H]-Bremazocine; settings: compound at 10 μM; for A1: inhibition of radioligand binding: human DOP membranes
T1 construct: purchased Perkin Elmer Biosignal
Procedure, shortened: (§1)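 Cloned human receptor membranes were coated onto FlashPlate wells and incubated with radioligand and compound (added from a 0.5 mM DMSO daughter plate) for 1 hour at room temperature in the dark. Scintillation counting gave percent inhibition, with DMSO defining total and reference ligand defining non-specific binding.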

[2] = biological target: T2, Human κ-Opioid (KOP) (Homo sapiens, UniProt P41145); assay: Radioligand binding, human κ-opioid (KOP) membranes, filtration, [3H]-Diprenorphine; settings: compound at 10 μM; for A2: inhibition of radioligand binding: human KOP membranes
T2 construct: purchased Perkin Elmer Biosignal
T2 sequence (P41145 whole entry): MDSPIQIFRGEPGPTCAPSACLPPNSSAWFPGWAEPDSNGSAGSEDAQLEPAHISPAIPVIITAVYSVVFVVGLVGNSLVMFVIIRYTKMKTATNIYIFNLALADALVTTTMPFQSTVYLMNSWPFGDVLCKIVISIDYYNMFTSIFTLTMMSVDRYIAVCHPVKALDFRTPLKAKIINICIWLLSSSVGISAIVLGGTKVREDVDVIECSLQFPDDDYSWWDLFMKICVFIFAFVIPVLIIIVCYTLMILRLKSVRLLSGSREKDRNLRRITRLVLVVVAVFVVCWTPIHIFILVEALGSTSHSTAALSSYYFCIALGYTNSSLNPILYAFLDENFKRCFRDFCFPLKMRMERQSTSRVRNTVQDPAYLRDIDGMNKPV
Procedure, shortened: (§2)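 Membranes from cloned human receptors were incubated with compound and radioligand for 1 hour at room temperature. Bound ligand was collected on 0.3% PEI-soaked filters, washed with cold 50 mM Tris-HCl pH 7.4, and counted by scintillation. Percent inhibition was computed against DMSO totals and reference-ligand nonspecific wells.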

[3] = biological target: T3, Human Melanocortin (MC3) (Homo sapiens, UniProt P41968); assay: Radioligand binding, human melanocortin MC3 membranes, FlashPlate, [125I]-NDP-αMSH; settings: compound at 10 μM; for A3: inhibition of radioligand binding: human MC3 membranes
T3 construct: purchased Perkin Elmer Biosignal
T3 sequence (P41968 whole entry): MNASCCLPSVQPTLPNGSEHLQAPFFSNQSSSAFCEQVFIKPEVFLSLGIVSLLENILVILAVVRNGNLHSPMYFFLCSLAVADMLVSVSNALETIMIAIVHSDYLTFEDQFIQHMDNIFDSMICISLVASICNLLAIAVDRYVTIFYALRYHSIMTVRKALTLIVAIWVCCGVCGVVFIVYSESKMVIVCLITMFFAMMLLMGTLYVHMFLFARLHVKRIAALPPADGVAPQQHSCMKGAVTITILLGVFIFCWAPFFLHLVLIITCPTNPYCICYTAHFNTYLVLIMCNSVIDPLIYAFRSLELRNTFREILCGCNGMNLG
Procedure, shortened: as §1

[4] = biological target: T4, Human Melanocortin (MC4) (Homo sapiens, UniProt P32245); assay: Radioligand binding, human melanocortin MC4 membranes, FlashPlate, [125I]-NDP-αMSH; settings: compound at 10 μM; for A4: inhibition of radioligand binding: human MC4 membranes
T4 construct: purchased Perkin Elmer Biosignal
T4 sequence (P32245 whole entry): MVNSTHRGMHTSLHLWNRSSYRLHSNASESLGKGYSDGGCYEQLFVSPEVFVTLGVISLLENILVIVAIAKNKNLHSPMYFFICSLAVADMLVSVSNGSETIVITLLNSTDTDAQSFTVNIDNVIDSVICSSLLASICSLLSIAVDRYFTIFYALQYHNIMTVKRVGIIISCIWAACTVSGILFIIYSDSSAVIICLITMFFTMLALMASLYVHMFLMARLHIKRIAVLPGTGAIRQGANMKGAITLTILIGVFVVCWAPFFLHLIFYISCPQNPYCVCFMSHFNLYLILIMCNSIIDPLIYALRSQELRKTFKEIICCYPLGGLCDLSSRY
Procedure, shortened: as §1

[5] = biological target: T5, Human melanocortin (MC5) (Homo sapiens, UniProt P33032); assay: Radioligand binding, human melanocortin MC5 membranes, FlashPlate, [125I]-NDP-αMSH; settings: compound at 10 μM; for A5: inhibition of radioligand binding: human MC5 membranes
T5 construct: purchased Perkin Elmer Biosignal
T5 sequence (P33032 whole entry): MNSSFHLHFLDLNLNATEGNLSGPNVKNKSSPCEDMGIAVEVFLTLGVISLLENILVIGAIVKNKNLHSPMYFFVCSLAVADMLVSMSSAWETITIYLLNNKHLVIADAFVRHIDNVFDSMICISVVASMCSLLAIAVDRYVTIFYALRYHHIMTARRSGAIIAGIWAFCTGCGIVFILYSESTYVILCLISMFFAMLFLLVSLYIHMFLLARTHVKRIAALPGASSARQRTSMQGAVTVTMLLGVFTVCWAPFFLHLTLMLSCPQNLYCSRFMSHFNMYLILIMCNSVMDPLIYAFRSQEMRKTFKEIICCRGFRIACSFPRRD
Procedure, shortened: as §1

[6] = biological target: T6, Human melanin-concentrating hormone (MCH1) (Homo sapiens, UniProt Q99705); assay: Radioligand binding, human melanin-concentrating hormone MCH1 membranes, FlashPlate, [125I]-S36057; settings: compound at 10 μM; for A6: inhibition of radioligand binding: [125I]-S36057, human MCH1 membranes
T6 construct: purchased Perkin Elmer Biosignal
T6 sequence (Q99705 whole entry): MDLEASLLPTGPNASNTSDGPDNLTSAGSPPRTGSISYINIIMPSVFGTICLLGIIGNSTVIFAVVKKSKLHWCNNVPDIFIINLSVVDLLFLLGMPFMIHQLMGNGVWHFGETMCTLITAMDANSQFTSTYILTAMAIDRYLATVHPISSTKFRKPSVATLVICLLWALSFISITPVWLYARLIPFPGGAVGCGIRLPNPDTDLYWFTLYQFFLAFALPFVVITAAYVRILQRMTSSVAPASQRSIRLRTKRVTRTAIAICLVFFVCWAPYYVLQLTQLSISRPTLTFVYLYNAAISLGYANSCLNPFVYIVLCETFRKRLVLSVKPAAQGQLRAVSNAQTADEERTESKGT
Procedure, shortened: as §1

[7] = biological target: T7, Human μ-opioid (MOP) (Homo sapiens, UniProt P35372); assay: Radioligand binding, human μ-opioid (MOP) membranes, FlashPlate, [3H]-Naloxone; settings: compound at 10 μM; for A7: inhibition of radioligand binding: human MOP membranes
T7 construct: purchased Perkin Elmer Biosignal
T7 sequence (P35372 whole entry): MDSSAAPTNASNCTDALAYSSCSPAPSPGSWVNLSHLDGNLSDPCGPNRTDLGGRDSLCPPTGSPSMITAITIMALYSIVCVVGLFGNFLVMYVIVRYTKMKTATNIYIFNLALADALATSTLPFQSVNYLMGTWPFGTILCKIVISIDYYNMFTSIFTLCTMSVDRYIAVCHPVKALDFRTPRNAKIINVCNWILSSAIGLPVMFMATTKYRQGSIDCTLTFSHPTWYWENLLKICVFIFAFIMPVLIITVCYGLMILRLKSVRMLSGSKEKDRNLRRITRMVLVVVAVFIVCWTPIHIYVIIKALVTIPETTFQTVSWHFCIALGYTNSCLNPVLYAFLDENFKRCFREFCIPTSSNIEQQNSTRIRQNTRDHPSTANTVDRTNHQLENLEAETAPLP
Procedure, shortened: as §1

[8] = biological target: T8, Human neurokinin (NK1) (Homo sapiens, UniProt P25103); assay: Radioligand binding, human neurokinin NK1 membranes, filtration, [125I]-Substance P; settings: compound at 10 μM; for A8: inhibition of radioligand binding: human NK1 membranes
T8 construct: purchased Perkin Elmer Biosignal
T8 sequence (P25103 whole entry): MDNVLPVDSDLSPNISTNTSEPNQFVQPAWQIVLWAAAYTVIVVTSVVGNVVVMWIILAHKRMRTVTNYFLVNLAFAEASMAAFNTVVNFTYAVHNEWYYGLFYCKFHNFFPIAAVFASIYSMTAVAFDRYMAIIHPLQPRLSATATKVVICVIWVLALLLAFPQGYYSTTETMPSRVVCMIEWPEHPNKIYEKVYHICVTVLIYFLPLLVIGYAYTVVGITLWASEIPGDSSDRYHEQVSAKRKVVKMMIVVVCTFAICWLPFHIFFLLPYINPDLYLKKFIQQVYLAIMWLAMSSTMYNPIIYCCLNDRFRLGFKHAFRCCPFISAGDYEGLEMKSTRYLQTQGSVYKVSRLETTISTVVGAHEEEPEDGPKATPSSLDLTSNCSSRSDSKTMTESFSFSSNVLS
Procedure, shortened: as §2

[9] = biological target: T9, Human neuropeptide Y (NPY-Y1) (Homo sapiens, UniProt P25929); assay: Radioligand binding, human neuropeptide Y NPY-Y1 membranes, FlashPlate, [125I]-PYY; settings: compound at 10 μM
T9 construct: purchased Perkin Elmer Biosignal
T9 sequence (P25929 1-384): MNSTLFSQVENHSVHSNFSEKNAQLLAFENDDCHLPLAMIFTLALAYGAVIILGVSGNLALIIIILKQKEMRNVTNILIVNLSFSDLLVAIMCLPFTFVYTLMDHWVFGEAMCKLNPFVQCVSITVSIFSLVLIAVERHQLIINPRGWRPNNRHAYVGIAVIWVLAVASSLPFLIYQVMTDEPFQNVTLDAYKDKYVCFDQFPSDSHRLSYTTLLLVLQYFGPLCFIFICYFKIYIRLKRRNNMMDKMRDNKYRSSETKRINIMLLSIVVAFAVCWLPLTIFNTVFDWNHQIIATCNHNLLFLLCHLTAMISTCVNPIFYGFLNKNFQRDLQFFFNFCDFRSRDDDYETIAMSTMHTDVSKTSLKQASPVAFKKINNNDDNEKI
Procedure, shortened: as §1

[10] = biological target: T10, Human opioid (ORL1) (Homo sapiens, UniProt P41146); assay: Radioligand binding, human opioid ORL1 membranes, FlashPlate, [125I]-Nociceptin; settings: compound at 10 μM
T10 construct: purchased Perkin Elmer Biosignal
T10 sequence (P41146 whole entry): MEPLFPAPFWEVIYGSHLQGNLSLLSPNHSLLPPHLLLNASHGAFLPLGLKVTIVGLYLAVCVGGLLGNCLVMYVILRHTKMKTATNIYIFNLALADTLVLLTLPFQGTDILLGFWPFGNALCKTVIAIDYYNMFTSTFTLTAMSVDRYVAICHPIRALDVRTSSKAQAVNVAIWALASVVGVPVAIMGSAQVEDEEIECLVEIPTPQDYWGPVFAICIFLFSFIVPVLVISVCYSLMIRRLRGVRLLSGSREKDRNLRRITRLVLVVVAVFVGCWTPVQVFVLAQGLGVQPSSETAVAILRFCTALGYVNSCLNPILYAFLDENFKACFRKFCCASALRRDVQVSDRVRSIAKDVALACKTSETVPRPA
Procedure, shortened: as §1

[11] = biological target: T11, Mouse urotensin (mUR2) (Mus musculus, UniProt Q8VIH9); assay: Radioligand binding, mouse urotensin mUR2 membranes, FlashPlate, [125I]-Urotensin II; settings: compound at 10 μM; for A11: inhibition of radioligand binding: mouse mUR2 membranes
T11 construct: purchased Perkin Elmer Biosignal
T11 sequence (Q8VIH9 1-385): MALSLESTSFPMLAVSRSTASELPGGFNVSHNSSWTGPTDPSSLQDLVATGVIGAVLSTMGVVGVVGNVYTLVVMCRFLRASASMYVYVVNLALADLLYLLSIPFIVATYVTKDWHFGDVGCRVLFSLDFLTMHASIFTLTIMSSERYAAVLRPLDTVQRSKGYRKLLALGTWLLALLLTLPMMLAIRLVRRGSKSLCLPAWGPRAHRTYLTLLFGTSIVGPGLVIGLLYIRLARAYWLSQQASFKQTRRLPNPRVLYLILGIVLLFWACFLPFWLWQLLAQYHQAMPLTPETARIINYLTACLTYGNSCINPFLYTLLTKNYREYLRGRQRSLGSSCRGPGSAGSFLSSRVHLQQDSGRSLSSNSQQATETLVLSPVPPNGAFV
Procedure, shortened: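 Cloned mouse urotensin (mUR2) receptor membranes from Perkin Elmer Biosignal were immobilized in FlashPlate microplates using a proprietary coating. Each well got 19.5 μl buffer, then 0.5 μl of DMSO, reference ligand, or compound. Adding 5 μl of [125I]-Urotensin II, diluted to 5× final concentration in binding buffer, started binding. Plates were sealed with TopSeal-A and incubated 1 hour at room temperature in the dark. Wells were counted for 30 seconds each on a TopCount after a 60-second delay, and percentage inhibition was calculated.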

[12] = [125I]-PYY, human NPY-Y1 membranes
[13] = [125I]-Nociceptin, human ORL1 membranes, 10 µM

T1 sequence (P41143 whole entry): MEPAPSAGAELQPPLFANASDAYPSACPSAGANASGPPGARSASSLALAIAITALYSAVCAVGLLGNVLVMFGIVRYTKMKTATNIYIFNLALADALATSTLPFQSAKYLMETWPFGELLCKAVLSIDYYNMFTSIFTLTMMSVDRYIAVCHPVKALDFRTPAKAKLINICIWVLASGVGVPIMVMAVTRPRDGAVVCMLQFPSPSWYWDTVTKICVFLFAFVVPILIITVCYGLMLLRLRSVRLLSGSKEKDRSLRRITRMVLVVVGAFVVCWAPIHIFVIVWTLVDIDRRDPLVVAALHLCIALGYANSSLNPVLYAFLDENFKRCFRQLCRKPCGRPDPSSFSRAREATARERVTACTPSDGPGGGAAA

Structure (SMILES) | A1: inhibition of radioligand binding ([1]; [3H]-Bremazocine) | A2: inhibition of radioligand binding ([2]; [3H]-Diprenorphine) | A3: inhibition of radioligand binding ([3]; [125I]-NDP-αMSH, 10 µM) | A4: inhibition of radioligand binding ([4]; [125I]-NDP-αMSH, 10 µM) | A5: inhibition of radioligand binding ([5]; [125I]-NDP-αMSH) | A6: inhibition of radioligand binding [6] | A7: inhibition of radioligand binding ([7]; [3H]-Naloxone) | A8: inhibition of radioligand binding ([8]; [125I]-Substance P) | A9: inhibition of radioligand binding [9, 12] | A10: inhibition of radioligand binding [10, 13] | A11: inhibition of radioligand binding ([11]; [125I]-Urotensin II) | also measured
NCCCC(=O)NC1C(OCc2ccc3ccccc3c2)OC(COCc2ccc(Cl)cc2)C(O)C1OCc1ccccc1 (single isomer, unassigned) [compound 470] | − (“−” indicates less than 50% inhibition at 10 μM) | − (“−” indicates less than 50% inhibition at 10 μM) | − (“−” indicates less than 50% inhibition at 10 μM) | − (“−” indicates less than 50% inhibition at 10 μM) | + (“+” indicates greater than 50% inhibition at 10 μM) | − (“−” indicates less than 50% inhibition at 10 μM) | − (“−” indicates less than 50% inhibition at 10 μM) | + (“+” indicates greater than 50% inhibition at 10 μM) | − (“−” indicates less than 50% inhibition at 10 μM) | + (“+” indicates greater than 50% inhibition at 10 μM) | − (“−” indicates less than 50% inhibition at 10 μM) | 
[N-]=[N+]=N[C@H]1C(OCCNC(=N)N)O[C@H](COCc2ccccc2)[C@@H](O)[C@@H]1OCc1ccc2ccccc2c1 (stereo partly shown) [compound 127] |  |  |  |  |  |  |  |  |  |  |  | A1 radioligand binding, percentage inhibition ([1]; [3H]-Bremazocine): − (“−” indicates less than 50% inhibition at 10 μM); A2 radioligand binding, percentage inhibition ([2]; [3H]-Diprenorphine): − (“−” indicates less than 50% inhibition at 10 μM); A3 radioligand binding, percentage inhibition ([3]; [125I]-NDP-αMSH): − (“−” indicates less than 50% inhibition at 10 μM); A4 radioligand binding, percentage inhibition ([4]; [125I]-NDP-αMSH): + (“+” indicates greater than 50% inhibition at 10 μM); A5 radioligand binding, percentage inhibition ([5]; [125I]-NDP-αMSH): + (“+” indicates greater than 50% inhibition at 10 μM); A6 radioligand binding, percentage inhibition ([6]; [125I]-S36057): − (“−” indicates less than 50% inhibition at 10 μM); A7 radioligand binding, percentage inhibition ([7]; [3H]-Naloxone): − (“−” indicates less than 50% inhibition at 10 μM); A8 radioligand binding, percentage inhibition ([8]; [125I]-Substance P): + (“+” indicates greater than 50% inhibition at 10 μM); A9 radioligand binding, percentage inhibition ([9]; [125I]-PYY): − (“−” indicates less than 50% inhibition at 10 μM); A10 radioligand binding, percentage inhibition ([10]; [125I]-Nociceptin): − (“−” indicates less than 50% inhibition at 10 μM); A11 radioligand binding, percentage inhibition ([11]; [125I]-Urotensin II): − (“−” indicates less than 50% inhibition at 10 μM)
CO[C@H]1[C@H](O)[C@@H](COCc2ccccc2)OC(OCc2ccc3ccccc3c2)[C@@H]1NC(=O)CCNC(=N)N (stereo partly shown) [compound 75] |  |  |  |  |  |  |  |  |  |  |  | A1 radioligand binding inhibition ([1]; human δ-opioid (DOP) membranes): − (“−” indicates less than 50% inhibition at 10 μM); A2 radioligand binding inhibition ([2]; human κ-opioid (KOP) membranes): − (“−” indicates less than 50% inhibition at 10 μM); A3 radioligand binding inhibition ([3]; human melanocortin MC3 membranes): − (“−” indicates less than 50% inhibition at 10 μM); A4 radioligand binding inhibition ([4]; human melanocortin MC4 membranes): − (“−” indicates less than 50% inhibition at 10 μM); A5 radioligand binding inhibition ([5]; human melanocortin MC5 membranes): − (“−” indicates less than 50% inhibition at 10 μM); A6 radioligand binding inhibition ([6]; human MCH1 membranes): − (“−” indicates less than 50% inhibition at 10 μM); A7 radioligand binding inhibition ([7]; human μ-opioid (MOP) membranes): + (“+” indicates greater than 50% inhibition at 10 μM); A8 radioligand binding inhibition ([8]; human neurokinin NK1 membranes): + (“+” indicates greater than 50% inhibition at 10 μM); A9 radioligand binding inhibition ([9]; human NPY-Y1 membranes): − (“−” indicates less than 50% inhibition at 10 μM); A10 radioligand binding inhibition ([10]; human ORL1 membranes): − (“−” indicates less than 50% inhibition at 10 μM); A11 radioligand binding inhibition ([11]; mouse urotensin mUR2 membranes): − (“−” indicates less than 50% inhibition at 10 μM)
NCCCC(=O)NC1C(OCc2ccc3ccccc3c2)OC(COCc2ccc3ccccc3c2)C(O)C1OCc1ccc2ccccc2c1 (stereo not shown) [compound 393] | − (“−” indicates less than 50% inhibition at 10 μM) | − (“−” indicates less than 50% inhibition at 10 μM) | + (“+” indicates greater than 50% inhibition at 10 μM) | + (“+” indicates greater than 50% inhibition at 10 μM) | + (“+” indicates greater than 50% inhibition at 10 μM) |  |  | + (“+” indicates greater than 50% inhibition at 10 μM) | − (“−” indicates less than 50% inhibition at 10 μM) | − (“−” indicates less than 50% inhibition at 10 μM) | − (“−” indicates less than 50% inhibition at 10 μM) | A6: inhibition of radioligand binding ([6]; 10 µM): − (“−” indicates less than 50% inhibition at 10 μM); A7: inhibition of radioligand binding ([7]; [3H]-Naloxone, 10 µM): − (“−” indicates less than 50% inhibition at 10 μM)
N=C(N)NCC(=O)NC1C(OCc2ccc(Cl)cc2)OC(COCc2ccc3ccccc3c2)C(O)C1OCc1ccc(Cl)cc1 (stereo not shown) [compound 417] | − (“−” indicates less than 50% inhibition at 10 μM) | − (“−” indicates less than 50% inhibition at 10 μM) |  |  | + (“+” indicates greater than 50% inhibition at 10 μM) | + (“+” indicates greater than 50% inhibition at 10 μM) | − (“−” indicates less than 50% inhibition at 10 μM) | + (“+” indicates greater than 50% inhibition at 10 μM) | − (“−” indicates less than 50% inhibition at 10 μM) |  | − (“−” indicates less than 50% inhibition at 10 μM) | A3: inhibition of radioligand binding ([3]; [125I]-NDP-αMSH): + (“+” indicates greater than 50% inhibition at 10 μM); A4: inhibition of radioligand binding ([4]; [125I]-NDP-αMSH): + (“+” indicates greater than 50% inhibition at 10 μM); A10: inhibition of radioligand binding ([10]; [125I]-Nociceptin, human ORL1 membranes): − (“−” indicates less than 50% inhibition at 10 μM)
